Assay results published in patent US10104889B2 (priority 2011, dated 2018).

Tested on: Candidatus ‘Liberibacter asiaticus’
Assay type: in vivo
Settings: 1 μM, all tested variants, monthly until sixth month, FIG. 6

Which “bacterial reduction at application frequencies 1, 2 and 4 times per month” value does the source give for C[C@@H]1CC[C@@]2(OC1)O[C@H]1C[C@H]3[C@@H]4CC[C@H]5CC(O)CC[C@]5(C)[C@H]4OC(=O)C[C@]3(C)[C@H]1[C@@H]2C (stereo partly drawn) [brassinosteroid analogue, (25R)-3-hydroxy-C-homo-11-oxa-5-espirostan-12-one] here?
The value was “bacterial reduction was observed”.
